The values below are quoted from earlier work in PubChem BioAssay AID1259409 (Chemical Carcinogenesis Research Information System (CCRIS), 2018).

The subject of the series is rodent chemically induced tumor inhibition, incidence and multiplicity. As to the kind of experiment: CCRIS tumor inhibitor studies. The following applies: Route [Inhibitor]: ORAL.

For `[Cl][Cd][Cl]`, the “tumour outcome (control, treated, inhibition, significance)” value reads like this: (Carcinogen: DIETHYLNITROSAMINE, 55-18-5, Dose [Inhibitor]: 0, 500 PPM IN DRINKING WATER BEGINNING 2 WK POST CARCINOGEN DOSE AND CONTINUING FOR DURATION OF STUDY (STUDY DURATION: 5, Species: MOUSE, Strain/Sex: B6C3F1/MALE, Target Tissue: Type of Lesion: LIVER: TUMOR, Dose [Carcinogen]: 90 MG/KG IN TRICAPRYLIN (5 MG/ML) ONCE, Promoter: NONE USED) 13/45 (29%), 3/42 (7%), 76%, p<0.05; (Carcinogen: DIETHYLNITROSAMINE, 55-18-5, Dose [Inhibitor]: 0, 500 PPM IN DRINKING WATER BEGINNING 2 WK POST CARCINOGEN DOSE AND CONTINUING FOR DURATION OF STUDY (STUDY DURATION: 5, Species: MOUSE, Strain/Sex: B6C3F1/MALE, Target Tissue: Type of Lesion: LUNG: TUMOR, Dose [Carcinogen]: 90 MG/KG IN TRICAPRYLIN (5 MG/ML) ONCE, Promoter: NONE USED) 15/45 (33%), 11/42 (26%), 21%, not calculated; (Carcinogen: DIETHYLNITROSAMINE, 55-18-5, Dose [Inhibitor]: 0, 1000 PPM IN DRINKING WATER BEGINNING 2 WK POST CARCINOGEN DOSE AND CONTINUING FOR DURATION OF STUDY (STUDY DURATION:, Species: MOUSE, Strain/Sex: B6C3F1/MALE, Target Tissue: Type of Lesion: LIVER: TUMOR, Dose [Carcinogen]: 90 MG/KG IN TRICAPRYLIN (5 MG/ML) ONCE, Promoter: NONE USED) 13/45 (29%), 0/47 (0%), 100%, p<0.05; (Carcinogen: DIETHYLNITROSAMINE, 55-18-5, Dose [Inhibitor]: 0, 1000 PPM IN DRINKING WATER BEGINNING 2 WK POST CARCINOGEN DOSE AND CONTINUING FOR DURATION OF STUDY (STUDY DURATION:, Species: MOUSE, Strain/Sex: B6C3F1/MALE, Target Tissue: Type of Lesion: LUNG: TUMOR, Dose [Carcinogen]: 90 MG/KG IN TRICAPRYLIN (5 MG/ML) ONCE, Promoter: NONE USED) 15/45 (33%), 1/47 (2%), 94%, p<0.05.

`Clc1cccc(-c2ccc(Cl)c(Cl)c2Cl)c1Cl`: for the setting “Carcinogen: DIETHYLNITROSAMINE, 55-18-5, Dose [Inhibitor]: 100 PPM IN DIET FOR 6 WK PRIOR TO CARCINOGEN DOSE (STUDY DURATION: 48 WK), Species: FISH, Strain/Sex: MT. SHASTA RAINBOW/MALE, FEMALE, Target Tissue: Type of Lesion: LIVER: HEPATOCELLULAR CARCINOMA AND HEPATOCHOLANGIOCELLULAR CARCINOMA, Dose [Carcinogen]: 250 PPM IN AQUEOUS SOLUTION FOR 24 HR, Promoter: NONE USED”, the “tumour outcome (control, treated, inhibition, significance)” value is 105/131 (80%), 112/140 (80%), 0%, not significant.

Take `O=S(=O)([O-])[O-].O=S(=O)([O-])[O-].O=S(=O)([O-])[O-].[Mo]`: the “tumour outcome (control, treated, inhibition, significance)” value (Carcinogen: N-METHYL-N-BENZYLNITROSAMINE, 937-40-6, Dose [Inhibitor]: 0, 2 PPM IN DIET FOR 1 WK PRIOR TO CARCINOGEN (STUDY DURATION: 25 WK), Species: RAT, Strain/Sex: F344/MALE, Target Tissue: Type of Lesion: ESOPHAGUS: CARCINOMA, Dose [Carcinogen]: 2.5 MG/KG 1/WK FOR 20 WK) is given as 30/41 (73%), 20/45 (44%), 40%, p<0.01.

For `CCCCC(CC)COC(=O)c1ccccc1C(=O)OCC(CC)CCCC` (stereo not drawn), where the note is “Carcinogen: N-NITROSOBIS(2-HYDROXYPROPYL)AMINE, 53609-64-6, Dose [Inhibitor]: 0, 1.2% IN DIET FOR 30 WK BEGINNING POST CARCINOGEN TREATMENT (STUDY DURATION: 35 WK), Species: HAMSTER, Strain/Sex: SYRIAN/MALE, Target Tissue: Type of Lesion: PANCREAS: ADENOCARCINOMA, Dose [Carcinogen]: 500 MG/KG 1/WK FOR 5 WK, Promoter: NONE USED”, the “tumour outcome (control, treated, inhibition, significance)” value is listed as 8/17 (47%), 7/19 (37%), 21%, not significant.

On to `O=[Se](=O)(O)O`, for which the “tumour outcome (control, treated, inhibition, significance)” value is 12/31 (39%), 7/24 (29%), 26%, not calculated (Carcinogen: 7,12-DIMETHYLBENZ[A]ANTHRACENE, 57-97-6, Dose [Inhibitor]: 0, 0.2 PPM IN DIET BEGINNING 3 D PRIOR TO CARCINOGEN DOSE AND CONTINUING FOR 8 MO (STUDY DURATION: 8 MO), Species: MOUSE, Strain/Sex: BALB/FEMALE, Target Tissue: Type of Lesion: MAMMARY GLAND: ADENOCARCINOMA, Dose [Carcinogen]: 1 MG/WK FOR 6 WK, Promoter: NONE USED) and 12/31 (39%), 2/23 (9%), 77%, p<0.08 (Carcinogen: 7,12-DIMETHYLBENZ[A]ANTHRACENE, 57-97-6, Dose [Inhibitor]: 0, 2 PPM IN DIET BEGINNING 3 D PRIOR TO CARCINOGEN DOSE AND CONTINUING FOR 8 MO (STUDY DURATION: 8 MO), Species: MOUSE, Strain/Sex: BALB/FEMALE, Target Tissue: Type of Lesion: MAMMARY GLAND: ADENOCARCINOMA, Dose [Carcinogen]: 1 MG/WK FOR 6 WK, Promoter: NONE USED).

`COc1cc(C)c(/C=C/C(C)=C/C=C/C(C)=C/C(=O)O)c(C)c1C`: the “tumour outcome (control, treated, inhibition, significance)” value is on record as 30/37 (81%), 27/37 (73%), 10%, not significant (Carcinogen: N-METHYL-N-NITROSOUREA, 684-93-5, Dose [Inhibitor]: 75 MG/KG DIET DAILY FOR 55 WK STARTING 1 WK AFTER LAST CARCINOGEN EXPOSURE (STUDY DURATION: 65 WK), Species: HAMSTER, Strain/Sex: SYRIAN/MALE, Target Tissue: Type of Lesion: TRACHEA: TUMOR, Dose [Carcinogen]: 1% FOR 7 SECONDS 2/WK FOR 9 WK, Promoter: NONE USED); 30/37 (81%), 24/38 (63%), 22%, not significant (Carcinogen: N-METHYL-N-NITROSOUREA, 684-93-5, Dose [Inhibitor]: 150 MG/KG DIET DAILY FOR 55 WK STARTING 1 WK AFTER LAST CARCINOGEN EXPOSURE (STUDY DURATION: 65 WK), Species: HAMSTER, Strain/Sex: SYRIAN/MALE, Target Tissue: Type of Lesion: TRACHEA: TUMOR, Dose [Carcinogen]: 1% FOR 7 SECONDS 2/WK FOR 9 WK, Promoter: NONE USED); 32/38 (84%), 34/39 (87%), -4%, not significant (Carcinogen: N-METHYL-N-NITROSOUREA, 684-93-5, Dose [Inhibitor]: 150 MG/KG DIET DAILY FOR 55 WK STARTING 1 WK AFTER LAST CARCINOGEN EXPOSURE (STUDY DURATION: 66 WK), Species: HAMSTER, Strain/Sex: SYRIAN/MALE, Target Tissue: Type of Lesion: TRACHEA: TUMOR, Dose [Carcinogen]: 1% FOR 7 SECONDS 2/WK FOR 10 WK, Promoter: NONE USED); 24/40 (60%), 24/40 (60%), 0%, not significant (Carcinogen: N-METHYL-N-NITROSOUREA, 684-93-5, Dose [Inhibitor]: 150 MG/KG DIET DAILY FOR 55 WK STARTING 1 WK AFTER LAST CARCINOGEN EXPOSURE (STUDY DURATION: 67.5 WK), Species: HAMSTER, Strain/Sex: SYRIAN/MALE, Target Tissue: Type of Lesion: TRACHEA: TUMOR, Dose [Carcinogen]: 1% FOR 7 SECONDS 2/WK FOR 11.5 WK, Promoter: NONE USED).
